{"source": "paper PMC12737022", "about": "“Evaluations of Sex Differences in Dosimetry in Rats Following Perfluorohexanesulfonamide (PFHxSA) Oral Exposure” (Toxics, 2025)", "test": "Liver-to-plasma partitioning (Kp)", "assay_type": "in vivo, rat", "details": "for Kp at 120 h: po", "procedure": "Liver-to-plasma partitioning (Kp) for PFHxSA was assessed for each sex (SI Text S8, Table 6). There were no sex differences in PFHxSA Kp values. […] Refer to SI Table S15 for Kp results for individual rats. […]\nText S8 Liver-to-Plasma Partitioning Coefficient Calculation\nConcentrations (µM) of PFHxSA in liver and plasma were used to calculate experimental liver-to-\nplasma (Kp) partitioning values for both sexes across all dose levels using Equation E.\n(E) K ௣ = Concentration௢௥௚௔௡Concentration௣௟௔௦௠௔", "note": "“And” between values parts separate entries of the source, which are not always exact repeats. Equal values may be shown once. Read-outs that look alike come from different tables or passages of the source.", "data": [{"smiles": "NS(=O)(=O)C(F)(F)C(F)(F)C(F)(F)C(F)(F)C(F)(F)C(F)(F)F", "note": "[PFHxSA, Perfluorohexanesulfonamide]", "values": [{"measurement": "Male Partition Coefficient (Kp), liver-plasma", "setting": "PFHxSA 10 mg/kg/day oral 5 days, male, individual rats", "result": "0.249 and 0.178 and 0.194"}, {"measurement": "Female Partition Coefficient (Kp), liver-plasma", "setting": "PFHxSA 30 mg/kg/day oral 5 days, female, individual rats", "result": "0.134 and 0.142 and 0.162 and 0.147"}, {"measurement": "Male Partition Coefficient (Kp), liver-plasma", "setting": "PFHxSA 30 mg/kg/day oral 5 days, male, individual rats", "result": "0.142 (2×) and 0.145"}, {"measurement": "Female Partition Coefficient (Kp), liver-plasma", "setting": "PFHxSA 100 mg/kg/day oral 5 days, female, individual rats", "result": "0.187 and 0.344 and 0.214 and 0.213"}, {"measurement": "Male Partition Coefficient (Kp), liver-plasma", "setting": "PFHxSA 100 mg/kg/day oral 5 days, male, individual rats", "result": "0.506 and 0.754 and 0.306 and 0.230 and 0.221"}, {"measurement": "Kp at 24 h", "setting": "both sexes, Sprague Dawley (Crl:CD(SD)), rat, liver and plasma, oral, both sexes across all tested doses", "result": "0.13 to 0.6"}, {"measurement": "Kp at 120 h", "setting": "female, Sprague Dawley (Crl:CD(SD)), rat, liver and plasma, 0.1 mg/kg/day, PFHxSA 0.1 mg/kg/day oral 5 days, female, individual rats, read-out: Female Partition Coefficient (Kp), liver-plasma", "result": 0.424}, {"measurement": "Kp at 120 h", "setting": "female, Sprague Dawley (Crl:CD(SD)), rat, liver and plasma, 0.3 mg/kg/day, PFHxSA 0.3 mg/kg/day oral 5 days, female rats, mean ± SD, read-out: PFHxSA liver-to-plasma Kp, Female Rats", "result": "0.431 ± 0.16"}, {"measurement": "Kp at 120 h", "setting": "female, Sprague Dawley (Crl:CD(SD)), rat, liver and plasma, 1 mg/kg/day, PFHxSA 1 mg/kg/day oral 5 days, female rats, mean ± SD, read-out: PFHxSA liver-to-plasma Kp, Female Rats", "result": "0.21 ± 0.074"}, {"measurement": "Kp at 120 h", "setting": "female, Sprague Dawley (Crl:CD(SD)), rat, liver and plasma, 3 mg/kg/day, PFHxSA 3 mg/kg/day oral 5 days, female rats, mean ± SD, read-out: PFHxSA liver-to-plasma Kp, Female Rats", "result": "0.222 ± 0.048"}, {"measurement": "Kp at 120 h", "setting": "female, Sprague Dawley (Crl:CD(SD)), rat, liver and plasma, 3 mg/kg/day, PFHxSA 3 mg/kg/day oral 5 days, female, individual rats, read-out: Female Partition Coefficient (Kp), liver-plasma", "result": 0.158}, {"measurement": "Kp at 120 h", "setting": "female, Sprague Dawley (Crl:CD(SD)), rat, liver and plasma, 10 mg/kg/day, PFHxSA 10 mg/kg/day oral 5 days, female rats, mean ± SD, read-out: PFHxSA liver-to-plasma Kp, Female Rats", "result": "0.135 ± 0.03"}, {"measurement": "Kp at 120 h", "setting": "female, Sprague Dawley (Crl:CD(SD)), rat, liver and plasma, 10 mg/kg/day, PFHxSA 10 mg/kg/day oral 5 days, female, individual rats, read-out: Female Partition Coefficient (Kp), liver-plasma", "result": 0.183}, {"measurement": "Kp at 120 h", "setting": "female, Sprague Dawley (Crl:CD(SD)), rat, liver and plasma, 30 mg/kg/day, PFHxSA 30 mg/kg/day oral 5 days, female rats, mean ± SD, read-out: PFHxSA liver-to-plasma Kp, Female Rats", "result": "0.148 ± 0.011"}, {"measurement": "Kp at 120 h", "setting": "female, Sprague Dawley (Crl:CD(SD)), rat, liver and plasma, 30 mg/kg/day, PFHxSA 30 mg/kg/day oral 5 days, female, individual rats, read-out: Female Partition Coefficient (Kp), liver-plasma", "result": 0.154}, {"measurement": "Kp at 120 h", "setting": "female, Sprague Dawley (Crl:CD(SD)), rat, liver and plasma, 100 mg/kg/day, PFHxSA 100 mg/kg/day oral 5 days, female rats, mean ± SD, read-out: PFHxSA liver-to-plasma Kp, Female Rats", "result": "0.222 ± 0.072"}, {"measurement": "Kp at 120 h", "setting": "female, Sprague Dawley (Crl:CD(SD)), rat, liver/plasma, 0.1 mg/kg/day, PFHxSA 0.1 mg/kg/day oral 5 days, female rats, mean ± SD, read-out: PFHxSA liver-to-plasma Kp, Female Rats", "result": "0.42 ± 0.09"}, {"measurement": "Kp at 120 h", "setting": "male, Sprague Dawley (Crl:CD(SD)), rat, liver and plasma, 1 mg/kg/day, PFHxSA 1 mg/kg/day oral 5 days, male rats, mean ± SD, read-out: PFHxSA liver-to-plasma Kp, Male Rats", "result": "0.223 ± 0.053"}, {"measurement": "Kp at 120 h", "setting": "male, Sprague Dawley (Crl:CD(SD)), rat, liver and plasma, 1 mg/kg/day, PFHxSA 1 mg/kg/day oral 5 days, male, individual rats, read-out: Male Partition Coefficient (Kp), liver-plasma", "result": 0.166}, {"measurement": "Kp at 120 h", "setting": "male, Sprague Dawley (Crl:CD(SD)), rat, liver and plasma, 3 mg/kg/day, PFHxSA 3 mg/kg/day oral 5 days, male rats, mean ± SD, read-out: PFHxSA liver-to-plasma Kp, Male Rats", "result": "0.186 ± 0.058"}, {"measurement": "Kp at 120 h", "setting": "male, Sprague Dawley (Crl:CD(SD)), rat, liver and plasma, 10 mg/kg/day, PFHxSA 10 mg/kg/day oral 5 days, male rats, mean ± SD, read-out: PFHxSA liver-to-plasma Kp, Male Rats", "result": "0.189 ± 0.041"}, {"measurement": "Kp at 120 h", "setting": "male, Sprague Dawley (Crl:CD(SD)), rat, liver and plasma, 10 mg/kg/day, PFHxSA 10 mg/kg/day oral 5 days, male, individual rats, read-out: Male Partition Coefficient (Kp), liver-plasma", "result": 0.191}, {"measurement": "Kp at 120 h", "setting": "male, Sprague Dawley (Crl:CD(SD)), rat, liver and plasma, 30 mg/kg/day, PFHxSA 30 mg/kg/day oral 5 days, male rats, mean ± SD, read-out: PFHxSA liver-to-plasma Kp, Male Rats", "result": "0.144 ± 0.0075"}, {"measurement": "Kp at 120 h", "setting": "male, Sprague Dawley (Crl:CD(SD)), rat, liver and plasma, 30 mg/kg/day, PFHxSA 30 mg/kg/day oral 5 days, male, individual rats, read-out: Male Partition Coefficient (Kp), liver-plasma", "result": 0.156}, {"measurement": "Kp at 120 h", "setting": "male, Sprague Dawley (Crl:CD(SD)), rat, liver and plasma, 100 mg/kg/day, PFHxSA 100 mg/kg/day oral 5 days, male rats, mean ± SD, read-out: PFHxSA liver-to-plasma Kp, Male Rats", "result": "0.403 ± 0.23"}, {"measurement": "Kp at 120 h", "setting": "male, Sprague Dawley (Crl:CD(SD)), rat, liver/plasma, 0.1 mg/kg/day, PFHxSA 0.1 mg/kg/day oral 5 days, male rats, mean ± SD, read-out: PFHxSA liver-to-plasma Kp, Male Rats", "result": "0.604 ± 0.22"}, {"measurement": "Kp at 120 h", "setting": "male, Sprague Dawley (Crl:CD(SD)), rat, liver/plasma, 0.3 mg/kg/day, PFHxSA 0.3 mg/kg/day oral 5 days, male rats, mean ± SD, read-out: PFHxSA liver-to-plasma Kp, Male Rats", "result": "0.256 ± 0.088"}]}]}
